{"source": "patent US7700728B2", "about": "“Use of chimeric receptors in a screening assay for identifying agonists and antagonists of cell receptors” (Schering Corporation, priority 2005, dated 2010)", "key": {"[1]": {"tested_on": "chimeric TLR2/CD32a receptor", "sequence (as listed by the source, change not shown)": "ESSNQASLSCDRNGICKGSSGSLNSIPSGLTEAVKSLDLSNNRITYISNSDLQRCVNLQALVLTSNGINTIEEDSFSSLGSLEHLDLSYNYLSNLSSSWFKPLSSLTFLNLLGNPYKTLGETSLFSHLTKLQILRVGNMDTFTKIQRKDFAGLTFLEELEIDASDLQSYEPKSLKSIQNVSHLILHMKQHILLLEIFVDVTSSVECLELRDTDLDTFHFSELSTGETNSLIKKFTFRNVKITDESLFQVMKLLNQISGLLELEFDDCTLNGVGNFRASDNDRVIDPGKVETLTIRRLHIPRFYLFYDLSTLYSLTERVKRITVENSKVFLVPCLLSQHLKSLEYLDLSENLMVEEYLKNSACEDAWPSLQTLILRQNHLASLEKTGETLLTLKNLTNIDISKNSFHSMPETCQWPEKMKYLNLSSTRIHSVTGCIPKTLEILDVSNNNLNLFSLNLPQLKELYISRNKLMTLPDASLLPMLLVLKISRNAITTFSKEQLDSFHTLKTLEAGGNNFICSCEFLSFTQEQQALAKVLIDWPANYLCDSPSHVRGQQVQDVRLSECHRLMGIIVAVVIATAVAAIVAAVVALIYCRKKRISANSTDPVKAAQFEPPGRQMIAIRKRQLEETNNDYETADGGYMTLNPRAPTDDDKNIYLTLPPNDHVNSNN", "test": "Calcium mobilization in untransfected U937 cells or cells transfected with pTLR2/CD32a (specificity control)", "assay_type": "cell-based, human", "description": "(§1) The hematopoietic cell line U937 was used for further biological investigation because of the ability of this cell line to display calcium mobilization upon cross-linking of endogenous CD32a using anti-CD32a antibodies followed by secondary antibody (as detected by fluorimetry following loading of the cells with Indo-1 or Fluo-4). Thus, U937 cells express all of the cellular components required for calcium mobilization mediated through CD32a activation.\n(§2) Transient transfection of the pTLR3/CD32a and pTLR2/CD32a expression vectors into U937 allowed high level cell surface expression of the chimeric molecule as detected with anti-TLR3 or anti-TLR2 antibodies, while no expression was observed on untransfected cells or cells transfected with the other chimeric vector."}, "[2]": {"molecular_target": "T1, chimeric TLR3/CD32a receptor (Homo sapiens, UniProt O15455)", "T1 construct": "expressed in transfected cells; host or cells: U937 cells, transiently or stably transfected with pTLR3/CD32a (pMET7 vector)", "T1 sequence (O15455 with tags, fused parts or gaps)": "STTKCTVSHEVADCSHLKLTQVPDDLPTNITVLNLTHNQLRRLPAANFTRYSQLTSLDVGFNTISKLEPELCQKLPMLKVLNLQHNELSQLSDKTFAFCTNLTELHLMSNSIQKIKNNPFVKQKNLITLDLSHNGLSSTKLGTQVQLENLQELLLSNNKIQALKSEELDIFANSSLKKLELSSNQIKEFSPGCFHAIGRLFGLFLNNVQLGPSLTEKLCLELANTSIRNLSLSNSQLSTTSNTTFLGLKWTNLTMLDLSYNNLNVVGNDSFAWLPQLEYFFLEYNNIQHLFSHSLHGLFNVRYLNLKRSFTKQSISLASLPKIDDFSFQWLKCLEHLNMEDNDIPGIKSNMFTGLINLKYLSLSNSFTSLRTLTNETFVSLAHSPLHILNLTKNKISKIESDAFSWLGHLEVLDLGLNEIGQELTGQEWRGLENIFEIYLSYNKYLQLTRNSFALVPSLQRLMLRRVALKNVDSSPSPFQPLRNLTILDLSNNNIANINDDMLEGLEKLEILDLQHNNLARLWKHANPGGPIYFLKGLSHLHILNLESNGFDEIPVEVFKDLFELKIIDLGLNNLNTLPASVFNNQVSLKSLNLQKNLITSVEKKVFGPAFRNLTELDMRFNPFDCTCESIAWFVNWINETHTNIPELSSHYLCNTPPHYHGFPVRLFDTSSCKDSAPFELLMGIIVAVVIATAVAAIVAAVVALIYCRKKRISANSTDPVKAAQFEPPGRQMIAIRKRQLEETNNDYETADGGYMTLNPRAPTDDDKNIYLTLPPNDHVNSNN", "test": "Effect of extracellular pH on calcium mobilization in U937 cells expressing chimeric TLR3/CD32a", "assay_type": "cell-based", "details": "pH range 5.5-7.5", "description": "Wild type TLR3 has previously been described as an intracellular receptor, at least in dendritic cells (DC), and interaction with its ligand occurs in early endosomes. […] U937 cells expressing the chimeric human TLR3/CD32a receptor at the cell surface were used to investigate the effect of the extracellular pH on poly-IC-mediated calcium mobilization."}, "PBMC": {"tested_on": "PBMC", "test": "Cytokine induction in PBMC", "assay_type": "cell-based"}, "[3]": {"tested_on": "chimeric TLR3/CD32a receptor lacking two N-glycosylation sites (N196 and N247)", "test": "NFκB luciferase reporter in HEK 293 cells co-transfected with chimeric TLR3/CD32a lacking two N-glycosylation sites", "assay_type": "cell-based, human", "description": "In order to determine the role of glycosylation in ligand recognition by TLR3, a chimeric TLR3/CD32a receptor lacking two N-glycosylation sites (N196 and N247 as numbered at Genbank Acc. No. NP_003256) was generated by site-directed mutagenesis and co-transfected into HEK 293 cells with a reporter plasmid containing concensus NFκB sites which, when activated, directs the expression of firefly luciferase."}, "[4]": {"molecular_target": "T1, chimeric TLR3/CD32a receptor", "test": "Calcium mobilization in U937 cells transiently transfected with pTLR3/CD32a", "assay_type": "cell-based", "description": "as §1, §2\nPoly-IC, a synthetic double-stranded RNA ligand for TLR3, was then tested for its ability to stimulate the chimeric TLR3/CD32a receptor. Poly(I) (15, 30 and 40 mers) and poly(C) (15, 30 and 40 mers) (Ambion, Huntingdon, Cambridgeshire, U.K. and Invitrogen, Cergy Pontoise, France respectively) were annealed in equal proportions according to their size for 15 minutes at 95° C. Independently, fragmentation of high molecular weight poly-IC (>5000 bp) was performed by metal-induced hydrolysis as recommended by Affymetrix (High Wycombe, UK). Briefly, 200 μg poly-IC was incubated with 40 μl of 5×RNA fragmentation buffer (200 mM Tris-acetate, pH 8.1, 500 mM KOAc, 150 mM MgOAc) in a final volume of 200 μl, for 35 min at […]. Fragmented poly-IC (100-200 bp) was then allowed to reach room temperature before purification. The relative sizes of dsRNA fragments were examined by electrophoresis in 2% agarose gel."}, "[5]": {"molecular_target": "T1, chimeric TLR3/CD32a receptor", "test": "Calcium mobilization in U937 clones stably transfected with pTLR3/CD32a", "assay_type": "cell-based", "description": "U937 cells were stably transfected with pTLR3/CD32a using co-transfection with an antibiotic-encoding plasmid and antibiotic selection followed by limiting dilution cloning. Clones were selected based on their cell surface expression level of TLR3. […] These clones expand very easily (up to 10^9 cells) and can be maintained for several months in culture without losing the expression of the chimeric receptor. […] Such stable clones provide a useful method for high through-put screening of candidate agents for the identification of TLR agonists and antagonists."}}}
{"substance": "poly-IC", "values": [{"measurement": "calcium mobilization", "setting": "[1]", "value": "no calcium mobilization"}, {"measurement": "pH required for optimal response (calcium mobilization)", "setting": "[2]", "value": 6.5}, {"measurement": "pH that prevented biological response (calcium mobilization)", "setting": "[2]", "value": "≥ 7.2"}, {"measurement": "dose required to detect cytokine induction", "setting": "PBMC", "value": 2.5, "unit": "µg/mL"}, {"measurement": "activity on mutant TLR3 (NFκB luciferase reporter)", "setting": "[3]", "value": "completely inactive"}, {"measurement": "calcium mobilization", "setting": "[4]; U937 transiently transfected with pTLR3/CD32a, fluorimetry with Indo-1 or Fluo-4", "value": "immediate calcium mobilization of similar intensity to that induced by anti-TLR antibodies"}, {"measurement": "dose required to detect biological response (calcium mobilization)", "setting": "[4]; dose response, transiently transfected U937", "value": 0.025, "unit": "μg/ml"}, {"measurement": "response to a second stimulation after sequential stimulation", "setting": "[4]; optimal concentration, second stimulation with poly-IC or anti-TLR3-mediated cross-linking", "value": "desensitization"}, {"measurement": "sensitivity in dose response (calcium mobilization)", "setting": "[5]; stable U937 clones", "value": "10 to 30", "unit": "ng/mL"}, {"measurement": "calcium mobilization", "setting": "[5]; stable U937 clones with cell surface expression of the chimeric receptor", "value": "robust calcium mobilization"}]}
